Results published in patent US11040028B2, “Penicinotam derivative, preparation method and use thereof” (OCEAN UNIVERSITY OF CHINA, priority 2017, dated 2021).

test system: BHK-21 cells; assay: Anti-fibrosis activity test: inhibition of BHK-21 cell proliferation (CCK-8); format: cell-based; conditions: Mesocricetus auratus, BHK-21, 48 h, 48 h, CCK-8
How it was run: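 Read-out: CCK-8 absorbance at 450 nm after 2 h, giving proliferation inhibition (1−Ai/Ao)×100% versus blank control, from which IC50 was derived. Cells had been treated with compounds for 48 h after 24 h adherence at 37° C. Pirfenidone served as positive control.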

Structure (SMILES)	IC50 [mM]
Cc1ccc2[nH]c3c(c(=O)c2c1)C(=O)n1cccc1-3 [Compound 696a, 7-Methyl-9H-pyrrolizino[1,2-b]quinoline-9,10(4H)-dione]	0.05 to 5

same assay, conditions: Mesocricetus auratus, BHK-21, 48 h, CCK-8, 48 hours after administration

Structure (SMILES)	IC50 [mM]
CS(=O)(=O)CCCOc1c2c(nc3ccccc13)-c1cccn1C2=O [Compound 659b, 9-(3-(methylsulfonyl)propoxy)-10H-pyrrolizino[1,2-b]quinolin-10-one]	0.05 to 5
N#Cc1cccc2nc3c(c(O)c12)C(=O)n1cccc1-3 [Compound 476b, 9-hydroxy-10-oxo-10H-pyrrolizino[1,2-b]quinoline-8-carbonitrile]	0.05 to 5
Cc1ccccc1COc1c2c(nc3ccccc13)-c1cccn1C2=O [Compound 574b, 9-((2-methylbenzyl)oxy)-10H-pyrrolizino[1,2-b]quinolin-10-one]	0.05 to 5
O=C1c2c(nc3c(Cl)cccc3c2O)-c2cccn21 [Compound 443b, 5-chloro-9-hydroxy-10H-pyrrolizino[1,2-b]quinolin-10-one]	0.05 to 5

test system: human lung fibroblasts HFL1; assay: Anti-fibrosis activity test: inhibition of proliferation of human lung fibroblasts HFL1 (CCK-8); format: cell-based; conditions: Homo sapiens, HFL1, 48 h, HFL1 cells, 48 h, CCK-8
How it was run: (§1)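 Cells seeded at 2×10^4 cells/mL, adhered 24 h, then exposed to compound concentrations in triplicate for 48 h at 37° C, 5% CO2. CCK-8 added for 2 h, absorbance at 450 nm; inhibition = (1−Ai/Ao)×100% versus blank control, IC50 calculated.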

Structure (SMILES)	IC50 [mM]
Cc1ccc2[nH]c3c(c(=O)c2c1)C(=O)n1cccc1-3 [Compound 696a, 7-Methyl-9H-pyrrolizino[1,2-b]quinoline-9,10(4H)-dione]	0.05 to 5

same assay, conditions: Homo sapiens, HFL1, 48 h, human lung fibroblasts HFL1, CCK-8, 48 hours

Structure (SMILES)	IC50 [mM]
CS(=O)(=O)CCCOc1c2c(nc3ccccc13)-c1cccn1C2=O [Compound 659b, 9-(3-(methylsulfonyl)propoxy)-10H-pyrrolizino[1,2-b]quinolin-10-one]	0.05 to 5
N#Cc1cccc2nc3c(c(O)c12)C(=O)n1cccc1-3 [Compound 476b, 9-hydroxy-10-oxo-10H-pyrrolizino[1,2-b]quinoline-8-carbonitrile]	0.05 to 5
Cc1ccccc1COc1c2c(nc3ccccc13)-c1cccn1C2=O [Compound 574b, 9-((2-methylbenzyl)oxy)-10H-pyrrolizino[1,2-b]quinolin-10-one]	0.05 to 5
O=C1c2c(nc3c(Cl)cccc3c2O)-c2cccn21 [Compound 443b, 5-chloro-9-hydroxy-10H-pyrrolizino[1,2-b]quinolin-10-one]	0.05 to 5

test system: human hepatic stellate cells LX-2; assay: Anti-fibrosis activity test: inhibition of proliferation of human hepatic stellate cells LX-2 (CCK-8); format: cell-based; conditions: Homo sapiens, 48 h, human hepatic stellate cells LX-2, CCK-8, 48 hours
How it was run: as §1

Structure (SMILES)	IC50 [mM]
CS(=O)(=O)CCCOc1c2c(nc3ccccc13)-c1cccn1C2=O [Compound 659b, 9-(3-(methylsulfonyl)propoxy)-10H-pyrrolizino[1,2-b]quinolin-10-one]	0.05 to 5
N#Cc1cccc2nc3c(c(O)c12)C(=O)n1cccc1-3 [Compound 476b, 9-hydroxy-10-oxo-10H-pyrrolizino[1,2-b]quinoline-8-carbonitrile]	0.05 to 5
Cc1ccccc1COc1c2c(nc3ccccc13)-c1cccn1C2=O [Compound 574b, 9-((2-methylbenzyl)oxy)-10H-pyrrolizino[1,2-b]quinolin-10-one]	0.05 to 5
O=C1c2c(nc3c(Cl)cccc3c2O)-c2cccn21 [Compound 443b, 5-chloro-9-hydroxy-10H-pyrrolizino[1,2-b]quinolin-10-one]	0.05 to 5

same assay, conditions: Homo sapiens, LX-2, 48 h, LX-2 cells, 48 h, CCK-8

Structure (SMILES)	IC50 [mM]
Cc1ccc2[nH]c3c(c(=O)c2c1)C(=O)n1cccc1-3 [Compound 696a, 7-Methyl-9H-pyrrolizino[1,2-b]quinoline-9,10(4H)-dione]	0.05 to 5

test system: human fibrosarcoma cells HT-1080; assay: Anti-fibrosis activity test: inhibition of proliferation of human fibrosarcoma cells HT-1080 (CCK-8); format: cell-based; conditions: Homo sapiens, HT-1080, 48 h, HT-1080 cells, 48 h, CCK-8
How it was run: as §1

Structure (SMILES)	IC50 [mM]
Cc1ccc2[nH]c3c(c(=O)c2c1)C(=O)n1cccc1-3 [Compound 696a, 7-Methyl-9H-pyrrolizino[1,2-b]quinoline-9,10(4H)-dione]	0.05 to 5

same assay, conditions: Homo sapiens, HT-1080, 48 h, human fibrosarcoma cells HT-1080, CCK-8, 48 hours

Structure (SMILES)	IC50 [mM]
CS(=O)(=O)CCCOc1c2c(nc3ccccc13)-c1cccn1C2=O [Compound 659b, 9-(3-(methylsulfonyl)propoxy)-10H-pyrrolizino[1,2-b]quinolin-10-one]	0.05 to 5
N#Cc1cccc2nc3c(c(O)c12)C(=O)n1cccc1-3 [Compound 476b, 9-hydroxy-10-oxo-10H-pyrrolizino[1,2-b]quinoline-8-carbonitrile]	0.05 to 5
Cc1ccccc1COc1c2c(nc3ccccc13)-c1cccn1C2=O [Compound 574b, 9-((2-methylbenzyl)oxy)-10H-pyrrolizino[1,2-b]quinolin-10-one]	0.05 to 5
O=C1c2c(nc3c(Cl)cccc3c2O)-c2cccn21 [Compound 443b, 5-chloro-9-hydroxy-10H-pyrrolizino[1,2-b]quinolin-10-one]	0.05 to 5

test system: human dermal fibroblasts CCC-ESF-1; assay: Anti-fibrosis activity test: inhibition of proliferation of human dermal fibroblasts CCC-ESF-1 (CCK-8); format: cell-based; conditions: Fibroblast; human dermal fibroblasts CCC-ESF-1, CCK-8, 48 hours
How it was run: as §1

Structure (SMILES)	IC50 [mM]
CS(=O)(=O)CCCOc1c2c(nc3ccccc13)-c1cccn1C2=O [Compound 659b, 9-(3-(methylsulfonyl)propoxy)-10H-pyrrolizino[1,2-b]quinolin-10-one]	0.05 to 5
N#Cc1cccc2nc3c(c(O)c12)C(=O)n1cccc1-3 [Compound 476b, 9-hydroxy-10-oxo-10H-pyrrolizino[1,2-b]quinoline-8-carbonitrile]	0.05 to 5
Cc1ccccc1COc1c2c(nc3ccccc13)-c1cccn1C2=O [Compound 574b, 9-((2-methylbenzyl)oxy)-10H-pyrrolizino[1,2-b]quinolin-10-one]	0.05 to 5
O=C1c2c(nc3c(Cl)cccc3c2O)-c2cccn21 [Compound 443b, 5-chloro-9-hydroxy-10H-pyrrolizino[1,2-b]quinolin-10-one]	0.05 to 5

same assay, conditions: Homo sapiens, Fibroblast; CCC-ESF-1 cells, 48 h, CCK-8

Structure (SMILES)	IC50 [mM]
Cc1ccc2[nH]c3c(c(=O)c2c1)C(=O)n1cccc1-3 [Compound 696a, 7-Methyl-9H-pyrrolizino[1,2-b]quinoline-9,10(4H)-dione]	0.05 to 5

test system: human embryonic lung fibroblast IMR-90; assay: Anti-fibrosis activity test: inhibition of proliferation of human embryonic lung fibroblast IMR-90 (CCK-8); format: cell-based; conditions: Homo sapiens; IMR-90 cells, 48 h, CCK-8
How it was run: as §1

Structure (SMILES)	IC50 [mM]
Cc1ccc2[nH]c3c(c(=O)c2c1)C(=O)n1cccc1-3 [Compound 696a, 7-Methyl-9H-pyrrolizino[1,2-b]quinoline-9,10(4H)-dione]	0.05 to 5

same assay, conditions: human embryonic lung fibroblast IMR-90, CCK-8, 48 hours

Structure (SMILES)	IC50 [mM]
CS(=O)(=O)CCCOc1c2c(nc3ccccc13)-c1cccn1C2=O [Compound 659b, 9-(3-(methylsulfonyl)propoxy)-10H-pyrrolizino[1,2-b]quinolin-10-one]	0.05 to 5
N#Cc1cccc2nc3c(c(O)c12)C(=O)n1cccc1-3 [Compound 476b, 9-hydroxy-10-oxo-10H-pyrrolizino[1,2-b]quinoline-8-carbonitrile]	0.05 to 5
Cc1ccccc1COc1c2c(nc3ccccc13)-c1cccn1C2=O [Compound 574b, 9-((2-methylbenzyl)oxy)-10H-pyrrolizino[1,2-b]quinolin-10-one]	0.05 to 5
O=C1c2c(nc3c(Cl)cccc3c2O)-c2cccn21 [Compound 443b, 5-chloro-9-hydroxy-10H-pyrrolizino[1,2-b]quinolin-10-one]	0.05 to 5

test system: cardiac fibroblast RAT-iCell-C002; assay: Anti-fibrosis activity test: inhibition of proliferation of cardiac fibroblast RAT-iCell-C002 (CCK-8); format: cell-based; conditions: Cardiac fibroblast, 48 h, RAT-iCell-C002 cells, CCK-8
How it was run: as §1

Structure (SMILES)	IC50 [mM]
Cc1ccc2[nH]c3c(c(=O)c2c1)C(=O)n1cccc1-3 [Compound 696a, 7-Methyl-9H-pyrrolizino[1,2-b]quinoline-9,10(4H)-dione]	0.05 to 5

same assay, conditions: Cardiac fibroblast, 48 h, cardiac fibroblast RAT-iCell-C002, CCK-8, 48 hours

Structure (SMILES)	IC50 [mM]
CS(=O)(=O)CCCOc1c2c(nc3ccccc13)-c1cccn1C2=O [Compound 659b, 9-(3-(methylsulfonyl)propoxy)-10H-pyrrolizino[1,2-b]quinolin-10-one]	0.05 to 5
N#Cc1cccc2nc3c(c(O)c12)C(=O)n1cccc1-3 [Compound 476b, 9-hydroxy-10-oxo-10H-pyrrolizino[1,2-b]quinoline-8-carbonitrile]	0.05 to 5
Cc1ccccc1COc1c2c(nc3ccccc13)-c1cccn1C2=O [Compound 574b, 9-((2-methylbenzyl)oxy)-10H-pyrrolizino[1,2-b]quinolin-10-one]	0.05 to 5
O=C1c2c(nc3c(Cl)cccc3c2O)-c2cccn21 [Compound 443b, 5-chloro-9-hydroxy-10H-pyrrolizino[1,2-b]quinolin-10-one]	0.05 to 5

test system: NF-κB; assay: Immunological activity test: inhibition of NF-κB activity; format: cell-based; conditions: initial concentration of 30 μM; a/b isomers given as first/second symbol; read-out: IC50 (μM), inhibitory activity against NF-κB
How it was run: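 IC50 values come from further analysis of the data after an initial test at a single 30 μM concentration. Parthenolide served as the reference inhibitor.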

Structure (SMILES)	IC50 [µM]
Cc1ccc2[nH]c3c(c(=O)c2c1)C(=O)n1cccc1-3 [Compound 696a, 7-Methyl-9H-pyrrolizino[1,2-b]quinoline-9,10(4H)-dione]	1 to 10
CS(=O)(=O)CCCOc1c2c(nc3ccccc13)-c1cccn1C2=O [Compound 659b, 9-(3-(methylsulfonyl)propoxy)-10H-pyrrolizino[1,2-b]quinolin-10-one]	1 to 10
N#Cc1cccc2nc3c(c(O)c12)C(=O)n1cccc1-3 [Compound 476b, 9-hydroxy-10-oxo-10H-pyrrolizino[1,2-b]quinoline-8-carbonitrile]	10 to 50
Cc1ccccc1COc1c2c(nc3ccccc13)-c1cccn1C2=O [Compound 574b, 9-((2-methylbenzyl)oxy)-10H-pyrrolizino[1,2-b]quinolin-10-one]	1 to 10
O=C1c2c(nc3c(Cl)cccc3c2O)-c2cccn21 [Compound 443b, 5-chloro-9-hydroxy-10H-pyrrolizino[1,2-b]quinolin-10-one]	1 to 10

test system: mouse macrophages (RAW264.7); assay: Lipopolysaccharide-induced NO secretion in macrophages (Griess); format: cell-based; conditions: Mus musculus, RAW264.7, 24 h, RAW264.7, LPS 1 μg/ml, a/b isomers given as first/second symbol, read-out: IC50 (μM), inhibition of lipopolysaccharide-induced NO secretion in macrophages
How it was run: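 RAW264.7 macrophages in DMEM with 10% FBS received test samples at several concentrations and were stimulated with 1 μg/ml LPS for 24 h. NO in the supernatant was measured with the Griess reagent at 548 nm, […].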

Structure (SMILES)	IC50 [µM]
Cc1ccc2[nH]c3c(c(=O)c2c1)C(=O)n1cccc1-3 [Compound 696a, 7-Methyl-9H-pyrrolizino[1,2-b]quinoline-9,10(4H)-dione]	1 to 10
CS(=O)(=O)CCCOc1c2c(nc3ccccc13)-c1cccn1C2=O [Compound 659b, 9-(3-(methylsulfonyl)propoxy)-10H-pyrrolizino[1,2-b]quinolin-10-one]	1 to 10
N#Cc1cccc2nc3c(c(O)c12)C(=O)n1cccc1-3 [Compound 476b, 9-hydroxy-10-oxo-10H-pyrrolizino[1,2-b]quinoline-8-carbonitrile]	1 to 10
Cc1ccccc1COc1c2c(nc3ccccc13)-c1cccn1C2=O [Compound 574b, 9-((2-methylbenzyl)oxy)-10H-pyrrolizino[1,2-b]quinolin-10-one]	10 to 50
O=C1c2c(nc3c(Cl)cccc3c2O)-c2cccn21 [Compound 443b, 5-chloro-9-hydroxy-10H-pyrrolizino[1,2-b]quinolin-10-one]	1 to 10
